pIC50: −log10 of the molar value. In brackets after ≈: the same amount, converted by molar mass. Where only a bound is given, the exact number is not on record here.

Assay [1] relates to K. pneumonia (ATCC 43816). The experiment in a line: Minimal Inhibitory Concentration (MIC) assay, K. pneumonia. Type of assay: cell-based. The following applies: Klebsiella pneumoniae; K. pneumoniae ATCC43816, CAMHB, 20 hours at 35° C.; read-out: MIC K. pneumoniae ATCC43816. In a few lines: (§1)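 Broth microdilution in cation-adjusted Mueller Hinton broth, inoculum 5×10^5 CFU/mL, compounds 2-fold serially diluted from 10 mM DMSO stocks. Plates incubated 20 hours at 35° C in ambient air; MIC (μg/mL) is the lowest concentration preventing visible growth.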

The test system of another assay is E. coli (ATCC 25922). Kind of assay: Minimal Inhibitory Concentration (MIC) assay, E. coli. Type of assay: cell-based. The following applies: Escherichia coli, ATCC25922; E. coli ATCC 25922, CAMHB, 20 hours at 35° C.; read-out: MIC E. coli ATCC 25922. In short, it runs like this:
as §1

For assay [2], the target named is Escherichia coli LpxH (UDP-2,3-diacylglucosamine hydrolase) (Escherichia coli (strain K12), UniProt P43341). Kind of assay: 50% Inhibitory Concentration (IC50) to LpxH, UMP/CMP-Glo Glycosyltransferase Assay kit. Type of assay: biochemical. In short, it runs like this:
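LpxH hydrolysis of UDP-2,3-diacylglucosamine to lipid X and UMP; UMP produced is converted to ATP and quantified by luciferase luminescence (UMP/CMP-Glo). Inhibition taken from reduced light output.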

Escherichia coli LpxH (UDP-2,3-diacylglucosamine hydrolase), sequence (P43341 whole entry): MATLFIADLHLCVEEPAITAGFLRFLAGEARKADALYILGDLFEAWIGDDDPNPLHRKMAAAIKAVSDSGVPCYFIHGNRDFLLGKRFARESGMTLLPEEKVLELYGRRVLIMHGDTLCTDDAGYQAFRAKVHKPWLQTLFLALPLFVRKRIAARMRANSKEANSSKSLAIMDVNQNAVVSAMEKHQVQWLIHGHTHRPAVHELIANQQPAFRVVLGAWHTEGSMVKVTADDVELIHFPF

For the molecule `CC1C(N)CC(=O)N1c1ccc(S(=O)(=O)N2CCN(c3cc(C(F)(F)F)cc(Cl)n3)CC2)cc1` (stereo not drawn) [Example 61, 4-Amino-1-[4-[4-[6-chloro-4-(trifluoromethyl)-2-pyridyl]piperazin-1-yl]sulfonylphenyl]-5-methyl-pyrrolidin-2-one], the MIC (in assay [1]; in the assay on E. coli (ATCC 25922)) was 6.47 mg/L (≈ 12.5 µM) in each case. The pIC50 in assay [2] was 7.30.
Consider `NCC1CN(c2ccc(S(=O)(=O)N3CCN(c4cc(C(F)(F)F)cc(Cl)n4)CC3)cc2F)C(=O)O1` (stereo not drawn) [Example 63, 5-(Aminomethyl)-3-[4-[4-[6-chloro-4-(trifluoromethyl)-2-pyridyl]piperazin-1-yl]sulfonyl-2-fluoro-phenyl]oxazolidin-2-one], for which the MIC in assay [1] stood at 7.3 mg/L (≈ 13.6 µM); in the assay with E. coli (ATCC 25922) it was 1.83 mg/L (≈ 3.4 µM). Also, in assay [2], the pIC50 was 6.69.
Taken in the same sequence, the figures for `NCC1CN(c2ccc(S(=O)(=O)N3CCN(c4cc(C(F)(F)F)cc(Cl)n4)CC3)c(F)c2)C(=O)O1` (stereo not drawn) [Example 64, 5-(Aminomethyl)-3-[4-[4-[6-chloro-4-(trifluoromethyl)-2-pyridyl]piperazin-1-yl]sulfonyl-3-fluoro-phenyl]oxazolidin-2-one] were 14.6 mg/L (≈ 27.1 µM), 3.65 mg/L (≈ 6.79 µM) and 6.58.
For `N#CC1CN(c2cc(C(F)(F)F)cc(Cl)n2)CCN1S(=O)(=O)c1ccc(N2CC(N)CC2=O)cc1` (stereo not drawn) [Example 67, 1-[4-(4-Amino-2-oxo-pyrrolidin-1-yl)phenyl]sulfonyl-4-[6-chloro-4-(trifluoromethyl)-2-pyridyl]piperazine-2-carbonitrile], in that order: 13.2 mg/L (≈ 25 µM), 6.61 mg/L (≈ 12.5 µM) and 6.83.
For `NC1CC(=O)N(c2ccc(S(=O)(=O)N3CCN(c4cc(C(F)F)cc(Cl)n4)CC3)cc2)C1` (stereo not drawn) [Example 68, 4-Amino-1-[4-[4-[6-chloro-4-(difluoromethyl)-2-pyridyl]piperazin-1-yl]sulfonylphenyl]pyrrolidin-2-one], in that order: 10.3 mg/L (≈ 21.3 µM), 2.59 mg/L (≈ 5.33 µM) and 6.59.
Consider `NC1CC(=O)N(c2ccc(S(=O)(=O)N3CCN(c4cc(S(=O)(=O)C5CC5)cc(Cl)n4)CC3)cc2)C1` (stereo not drawn) [Example 69, 4-Amino-1-[4-[4-(6-chloro-4-cyclopropylsulfonyl-2-pyridyl)piperazin-1-yl]sulfonylphenyl]pyrrolidin-2-one], for which the MIC is 6.75 mg/L (≈ 12.5 µM) in assay [1] and 13.5 mg/L (≈ 25 µM) with E. coli (ATCC 25922). The pIC50 in assay [2] is 6.13.
In the case of `NC1CC(=O)N(c2ccc(S(=O)(=O)N3CCN(c4cc(S(=O)(=O)C5CCOCC5)cc(Cl)n4)CC3)cc2)C1` (stereo not drawn) [Example 70, 4-Amino-1-[4-[4-(6-chloro-4-tetrahydropyran-4-ylsulfonyl-2-pyridyl)piperazin-1-yl]sulfonylphenyl]pyrrolidin-2-one], the MIC (in assay [1]; in the assay on E. coli (ATCC 25922)) was 15.5 mg/L (≈ 26.6 µM) throughout. In assay [2], this molecule showed a pIC50 of 7.32.
On to `N#CC1(c2cc(Cl)nc(N3CCN(S(=O)(=O)c4ccc(N5CC(N)CC5=O)cc4)CC3)c2)CC1` (stereo not drawn) [Example 71, 1-[2-[4-[4-(4-Amino-2-oxo-pyrrolidin-1-yl)phenyl]sulfonylpiperazin-1-yl]-6-chloro-4-pyridyl]cyclopropanecarbonitrile], for which the minimal inhibitory concentration (MIC) (in assay [1]; with E. coli (ATCC 25922)) was 12.5 mg/L (≈ 25 µM) throughout. This molecule had a pIC50 in assay [2] of 6.23.
As for `NC1CC(=O)N(c2ccc(S(=O)(=O)N3CCN(c4cc(Oc5ccccc5)cc(Cl)n4)CC3)cc2)C1` (stereo not drawn) [Example 72, 4-Amino-1-[4-[4-(6-chloro-4-phenoxy-2-pyridyl)piperazin-1-yl]sulfonylphenyl]pyrrolidin-2-one], the MIC (in assay [1]; in the assay with E. coli (ATCC 25922)) was 7.06 mg/L (≈ 13.4 µM) in each case. Also, in assay [2], the pIC50 was 6.39.
On to `NC1CC(=O)N(c2ccc(S(=O)(=O)N3CCN(c4cc(C(F)(F)c5ccccc5)cc(Cl)n4)CC3)cc2)C1` (stereo not drawn) [Example 73, 4-Amino-1-[4-[4-[6-chloro-4-[difluoro(phenyl)methyl]-2-pyridyl]piperazin-1-yl]sulfonylphenyl]pyrrolidin-2-one], for which the MIC (in assay [1]; with E. coli (ATCC 25922)) was 0.44 mg/L (≈ 0.783 µM) in each case. Besides, the pIC50 in assay [2] was 7.49.
With `Cc1cc(C(F)(F)c2ccccc2)nc(N2CCN(S(=O)(=O)c3ccc(N4CC(N)CC4=O)cc3)CC2)n1` (stereo not drawn) [Example 76, 4-Amino-1-[4-[4-[4-[difluoro(phenyl)methyl]-6-methyl-pyrimidin-2-yl]piperazin-1-yl]sulfonylphenyl]pyrrolidin-2-one], the minimal inhibitory concentration (MIC) stood at 1.03 mg/L (≈ 1.9 µM) in assay [1] and 0.51 mg/L (≈ 0.94 µM) in the assay with E. coli (ATCC 25922). Besides, in assay [2], the negative-log IC50 (pIC50) is 7.56.
For `NC1CC(=O)N(c2ccc(S(=O)(=O)N3CCN(c4cc(C(F)(F)c5ccccc5)nc(Cl)n4)CC3)cc2)C1` (stereo not drawn) [Example 77, 4-Amino-1-[4-[4-[2-chloro-6-[difluoro(phenyl)methyl]pyrimidin-4-yl]piperazin-1-yl]sulfonylphenyl]pyrrolidin-2-one], in that order: 0.44 mg/L (≈ 0.781 µM), 0.44 mg/L (≈ 0.781 µM) and 8.15.
For `NC1CC(=O)N(c2ccc(S(=O)(=O)N3CCN(c4cc(C(F)(F)c5ccccc5)nc(C5CC5)n4)CC3)cc2)C1` (stereo not drawn) [Example 79, 4-Amino-1-[4-[4-[2-cyclopropyl-6-[difluoro(phenyl)methyl]pyrimidin-4-yl]piperazin-1-yl]sulfonylphenyl]pyrrolidin-2-one], in that order: more than 28.4 mg/L, 14.2 mg/L (≈ 25 µM) and 6.75.
As to `COc1cc(C(F)(F)c2ccccc2)nc(N2CCN(S(=O)(=O)c3ccc(N4CC(N)CC4=O)cc3)CC2)n1` (stereo not drawn) [Example 82, 4-Amino-1-[4-[4-[4-[difluoro(phenyl)methyl]-6-methoxy-pyrimidin-2-yl]piperazin-1-yl]sulfonylphenyl]pyrrolidin-2-one], the MIC (in assay [1]; in the assay with E. coli (ATCC 25922)) was 6.98 mg/L (≈ 12.5 µM) each time. Further, in assay [2], the pIC50 is 6.61.
For `Cc1nc(N2CCN(S(=O)(=O)c3ccc(N4C[C@H](N)CC4=O)cc3)CC2)cc(C(F)(F)c2ccccc2)n1` [Example 83, (4R)-4-Amino-1-[4-[4-[6-[difluoro(phenyl)methyl]-2-methyl-pyrimidin-4-yl]piperazin-1-yl]sulfonylphenyl]pyrrolidin-2-one], the MIC (in assay [1]; in the assay with E. coli (ATCC 25922)) was 1.7 mg/L (≈ 3.13 µM) each time. The molecule further showed a pIC50 in assay [2] of 8.43.
With `C=Cc1nc(N2CCN(S(=O)(=O)c3ccc(N4CC(N)CC4=O)cc3)CC2)cc(C(F)(F)c2ccccc2)n1` (stereo not drawn) [Example 84, 4-Amino-1-[4-[4-[6-[difluoro(phenyl)methyl]-2-vinyl-pyrimidin-4-yl]piperazin-1-yl]sulfonylphenyl]pyrrolidin-2-one], the MIC in assay [1] worked out at 16.7 mg/L (≈ 30.1 µM); in the assay with E. coli (ATCC 25922), 4.18 mg/L (≈ 7.54 µM). Also, the pIC50 in assay [2] is 7.84.
For `O=C1O[C@H]2CCNC[C@H]2N1c1ccc(S(=O)(=O)N2CCN(c3cc(C(F)(F)c4ccccc4)cc(Cl)n3)CC2)cc1` [Example 87, (3aR,7aS)-3-[4-[4-[6-chloro-4-[difluoro(phenyl)methyl]-2-pyridyl]piperazin-1-yl]sulfonylphenyl]-3a,4,5,6,7,7a-hexahydrooxazolo[4,5-c]pyridin-2-one], the MIC in assay [1] came out at 1.09 mg/L (≈ 1.8 µM); in the assay with E. coli (ATCC 25922), 0.55 mg/L (≈ 0.91 µM). The pIC50 in assay [2] is 7.94.
As for `NCC1CN(c2ccc(S(=O)(=O)N3CCN(c4cc(C(F)(F)c5ccccc5)cc(Cl)n4)CC3)cc2)C(=O)O1` (stereo not drawn) [Example 88, 5-(Aminomethyl)-3-[4-[4-[6-chloro-4-[difluoro(phenyl)methyl]-2-pyridyl]piperazin-1-yl]sulfonylphenyl]oxazolidin-2-one], the values for the MIC (in assay [1]; in the assay with E. coli (ATCC 25922)) were 0.53 mg/L (≈ 0.917 µM) and 0.26 mg/L (≈ 0.45 µM), respectively. In assay [2], this molecule gave a negative-log IC50 (pIC50) of 7.86.

As usually defined, the MIC is the lowest concentration that inhibits growth of the organism. As usually defined, the pIC50 is the IC50 on a negative log10 scale, so that one unit is a factor of ten. A higher pIC50 goes with a low IC50.
